Test results as given in patent publication US20230086303A1 (priority 2016, published 2023).
Values after ≈ are worked out from the molar mass of the structure shown. Starred links: 1 amine or outer side, 2 acyl side, 3 side chain; linkers in the order of their positions; H or OH if unused. Positions of bridges follow the written chain, without caps; N, C: chain ends. Non-standard residues stand in square brackets, D forms with d. Residues, ends and D or L forms follow the SMILES beside them. *: point of attachment. pTerphenylCO(4''-OnC5H11) = CCCCCOc1ccc(-c2ccc(-c3ccc(C(=O)*)cc3)cc2)cc1; Orn(4R-OH,5R-OH) = O=C([C@H](C[C@@H](O)[C@@H](O)N[*:3])N[*:1])[*:2]; hTyr(3S-OH,4S-OH) = N[C@H](C(=O)O)[C@H](O)[C@@H](O)c1ccc(O)cc1; Pro(3S-OH,4S-Me) = C[C@H]1CN[C@H](C(=O)O)[C@H]1O; Hyp = O=C(O)[C@@H]1C[C@@H](O)CN1

Columns and labels:
[1] = in vivo; cited from earlier work
[2] = Gastrointestinal related adverse events in clinical study; details: 10 mg/day donepezil administered transdermally versus orally
Protocol: The number of subjects with treatment related adverse events is assessed daily during the 36 day confinement period and for 7 visits over a 21 day wash-out period. Assessment of local skin irritation in the subjects of Arm 1 will also be assessed daily during the 36 day confinement period and for 7 visits over a 21 day wash-out period. Skin irritation is assessed using an 8 point categorical scale of no irritation; minimal erythema, barely perceptible; definite erythema readily visible; minimal edema or minimal popular response; erythema and papules; definite edema; erythema, edema and papules; vesicular eruption; strong reaction, spreading beyond application site.

[3] = cited from earlier work

Row | SMILES | half-life [1] | other results
1 | CO[C@H]1C[C@@H]2CC[C@@H](C)[C@@](O)(O2)C(=O)C(=O)N2CCCC[C@H]2C(=O)O[C@H]([C@H](C)C[C@@H]2CC[C@@H](O)[C@H](OC)C2)CC(=O)[C@H](C)/C=C(\C)[C@@H](O)[C@@H](OC)C(=O)[C@H](C)C[C@H](C)/C=C/C=C/C=C/1C [sirolimus] | greater than 48 hours | –
2 | Cc1cc2c(s1)Nc1ccccc1N=C2N1CCN(C)CC1 [olanzapine] | greater than 48 hours | –
3 | C[C@@H]1[C@H](O)[C@@H](C)/C=C/C=C/C=C/C=C/C=C/C=C/C=C/[C@H](O[C@@H]2O[C@H](C)[C@@H](O)[C@H](N)[C@@H]2O)C[C@@H]2O[C@](O)(C[C@@H](O)C[C@@H](O)[C@H](O)CC[C@@H](O)C[C@@H](O)CC(=O)O[C@H]1C)C[C@H](O)[C@H]2C(=O)O [amphotericin] | greater than 48 hours | –
4 | COc1cc2c(cc1OC)C(=O)C(CC1CCN(Cc3ccccc3)CC1)C2 (stereo not shown) [donepezil] | – | number of subjects experiencing diarrhea, transdermally versus orally [2]: two-fold lower; number of subjects experiencing nausea, transdermally versus orally [2]: four-fold lower
5 | CCC1(c2ccccc2)C(=O)NC(=O)NC1=O [phenobarbital] | greater than 48 hours | –
6 | CCCCCCCCc1ccc(CCC(N)(CO)CO)cc1 [fingolimod] | greater than 48 hours | –
7 | CNCCC=C1c2ccccc2CCc2ccccc21 [nortriptyline] | greater than 48 hours | –
8 | C[C@]12CC3C[C@](C)(C1)C[C@@](N)(C3)C2 [free base of memantine, 3,5-dimethyladamantan-1-amine] | – | water solubility [3]: 900 µg/mL (≈ 5.02 mM)
9 | CCCCCOc1ccc(-c2ccc(-c3ccc(C(=O)N[C@H]4C[C@@H](O)[C@@H](O)NC(=O)[C@@H]5[C@@H](O)[C@@H](C)CN5C(=O)[C@H]([C@@H](C)O)NC(=O)[C@H]([C@H](O)[C@@H](O)c5ccc(O)cc5)NC(=O)[C@@H]5C[C@@H](O)CN5C(=O)[C@H]([C@@H](C)O)NC4=O)cc3)cc2)cc1 [anidulafungin] ({pTerphenylCO(4''-OnC5H11)}-[Orn(4R-OH,5R-OH)]T[Hyp][hTyr(3S-OH,4S-OH)]T[Pro(3S-OH,4S-Me)]; lactam 1-C) | greater than 48 hours | –
10 | O=C1CN=C(c2ccccc2Cl)c2cc([N+](=O)[O-])ccc2N1 [clonazepam] | greater than 48 hours | –
11 | NC(=O)N1c2ccccc2C=Cc2ccccc21 [carbamazepine] | greater than 48 hours | –
12 | CCC1(c2ccccc2)C(=O)NC(=O)N(C)C1=O (stereo not shown) [mephobarbital] | greater than 48 hours | –
